Test results reported in patent US8137919B2 (Montefiore Medical Center, priority 2008, dated 2012).

Assays:
Format in all cases: cell-based
[1] = system: GEO, LIM1215, and SW403 (cetuximab sensitive cell lines); assay: Proliferative response to EGF, S-phase; conditions: 24 h post EGF treatment (0.5 ng/ml), serum-free
Method: (§1) For each cell line, one plate was harvested for determination of t=0 absorbance values. Viable cells were determined 72 h post-treatment using the MTT assay by measurement of absorbance at 570 nm. The relative rate of cell growth for each cell line was factored into the analysis by subtracting the absorbance at time zero from both the control and treatment groups. All the experiments were replicated a minimum of 3 times. For determination of sensitivity to EGF, cells were serum starved for 4 h then treated with 0, 0.5 or 5 ng/ml EGF for 24-72 h.
(§2) To test this, the proliferative response of the 3 most cetuximab-sensitive and 3 most cetuximab-resistant cell lines to exogenous EGF-treatment was examined under serum-free conditions (FIG. 6). […] These findings indicate that a subset of colon tumors exist that are dependent upon ligand activation of EGFR for their growth, and it is these cell lines that are growth inhibited by blockade of ligand binding to the EGFR.

[2] = system: LIM2405, HCT15, and HCT116 (cetuximab resistant cell lines); assay: Proliferative response to EGF, S-phase; conditions: 24 h post EGF treatment (0.5 ng/ml), serum-free
Method: as §1, §2

[3] = system: cetuximab sensitive and resistant cell lines; assay: Growth response to EGF, MTT assay; conditions: 0.5 or 5 ng/ml EGF
Method: Cell growth was assayed by MTT assay. Values shown are mean±SEM from a representative experiment, #p<0.05. Experiments were repeated 3 separate times.
as §1

SW403 cells = assay: Apoptosis, PI staining and FACS; conditions: 5 microMolar, 72 hours treatment
Method: FIG. 4. […] Cell cycle distribution and apoptosis was assessed by PI staining and FACS analysis. Values shown are mean±SEM, n=3, #P<0.05.

## EGF: EGFR activator, EGFR ligand
[1]
  change in S-phase: significant increase
[2]
  change in S-phase: not
[3]
  cell growth (MTT): preferentially increased growth of the cetuximab sensitive cell lines

## O=c1[nH]cc(F)c(=O)[nH]1 [5FU, 5-fluoruracil]
SW403 cells
  apoptosis: approximately 50%
